Assay results taken from US11932658B2 (BRISTOL-MYERS SQUIBB COMPANY, priority 2016, dated 2024).

target: T1, PAR4 (Homo sapiens, UniProt Q96RI0); test: PAR4 FLIPR assay (antagonism of agonist peptide-induced calcium mobilization); assay type: cell-based
T1 construct: expressed in transfected cells; host or cells: HEK293 PAR4 Clone 1.2A (BMS Arctic ID 383940)
T1 sequence (Q96RI0 18-385): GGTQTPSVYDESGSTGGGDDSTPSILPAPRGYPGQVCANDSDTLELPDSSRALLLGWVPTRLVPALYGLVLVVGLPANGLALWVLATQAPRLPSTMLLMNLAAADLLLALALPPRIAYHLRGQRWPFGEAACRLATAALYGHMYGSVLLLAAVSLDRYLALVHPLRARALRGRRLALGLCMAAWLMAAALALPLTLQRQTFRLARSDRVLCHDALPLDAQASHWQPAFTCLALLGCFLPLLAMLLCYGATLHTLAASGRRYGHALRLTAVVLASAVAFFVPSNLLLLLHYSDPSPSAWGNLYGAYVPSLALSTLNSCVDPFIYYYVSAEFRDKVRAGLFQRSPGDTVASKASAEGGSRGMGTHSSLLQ
In short: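 Antagonism was taken as block of calcium mobilization evoked by the agonist peptide H-Ala-Phe(4-F)-Pro-Gly-Trp-Leu-Val-Lys-Asn-[…]-NH2, added after 30 min room-temperature compound preincubation in dye-loaded PAR4-transfected HEK293 cells (endogenous PAR1). Fluorescence was read on FDSS, with compound addition alone used as the agonist counter-screen; values come from 11-point concentration-response curves.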

| SMILES | IC50 [nM] |
| --- | --- |
| CNC(=O)c1ccc(NC(=O)OC[C@H]2Cc3c(c(F)cc4nc(-c5cc(C)cc6nc(OC)cnc56)sc34)O2)cc1 [Example 208, (R)-(5-fluoro-2-(2-methoxy-7-methylquinoxalin-5-yl)-7,8-dihydrobenzofuro[5,4-d]thiazo 1-7-yl)methyl (4-(methylcarbamoyl)phenyl)carbamate] | 1.1 |
| COc1cnc2c(-c3nc4cc(F)c5c(c4s3)C[C@@H](CNC(C)=O)O5)cc(C)cc2n1 [Example 209, (S)-N-((5-fluoro-2-(2-methoxy-7-methylquinoxalin-5-yl)-7,8-dihydrobenzofuro[5,4-d]thiazol-7-yl)methyl)acetamide] | 26 |
| COC(=O)NC[C@@H]1Cc2c(c(F)cc3nc(-c4cc(C)cc5nc(OC)cnc45)sc23)O1 [Example 210, (S)-methyl ((5-fluoro-2-(2-methoxy-7-methylquinoxalin-5-yl)-7,8-dihydrobenzofuro[5,4-d]thiazol-7-yl)methyl)carbamate] | 2.9 |
| COc1cnc2c(-c3nc4cc(F)c5c(c4s3)C[C@@H](CNC(=O)OCc3ccccc3)O5)cc(C)cc2n1 [Example 211, (S)-benzyl ((5-fluoro-2-(2-methoxy-7-methylquinoxalin-5-yl)-7,8-dihydrobenzofuro[5,4-d]thiazol-7-yl)methyl)carbamate] | 1.3 |
| COc1cnc2c(-c3nc4cc(F)c5c(c4s3)C[C@@H](CNC(=O)Oc3ccccc3)O5)cc(C)cc2n1 [Example 212, (S)-phenyl ((5-fluoro-2-(2-methoxy-7-methylquinoxalin-5-yl)-7,8-dihydrobenzofuro[5,4-d]thiazol-7-yl)methyl)carbamate] | 2.1 |
| COc1cnc2c(-c3nc4cc(F)c5c(c4s3)C[C@@H](CNC(=O)Oc3ccc(C)cc3)O5)cc(C)cc2n1 [Example 213, (S)-p-tolyl ((5-fluoro-2-(2-methoxy-7-methylquinoxalin-5-yl)-7,8-dihydrobenzofuro[5,4-d]thiazol-7-yl)methyl)carbamate] | 3.6 |
| COc1cnc2c(-c3nc4cc(F)c5c(c4s3)C[C@@H](CNC(=O)Oc3ccc(Cl)cc3)O5)cc(C)cc2n1 [Example 214, (S)-4-chlorophenyl ((5-fluoro-2-(2-methoxy-7-methylquinoxalin-5-yl)-7,8-dihydrobenzofuro[5,4-d]thiazol-7-yl)methyl)carbamate] | 26 |
| COc1cnc2c(-c3nc4cc(F)c5c(c4s3)C[C@@H](CNC(=O)C(F)(F)F)O5)cc(C)cc2n1 [Example 215, (S)-2,2,2-trifluoro-N-((5-fluoro-2-(2-methoxy-7-methylquinoxalin-5-yl)-7,8-dihydrobenzofuro[5,4-d]thiazol-7-yl)methyl)acetamide] | 2.3 |
| COc1ccc(OC(=O)NC[C@@H]2Cc3c(c(F)cc4nc(-c5cc(C)cc6nc(OC)cnc56)sc34)O2)cc1 [Example 216, (S)-4-methoxyphenyl ((5-fluoro-2-(2-methoxy-7-methylquinoxalin-5-yl)-7,8-dihydrobenzofuro[5,4-d]thiazol-7-yl)methyl)carbamate] | 2.1 |
| COc1cnc2c(-c3nc4cc(F)c5c(c4s3)C[C@H](CNC(=O)Cc3ccccc3)O5)cc(C)cc2n1 [Example 217, (R)-N-((5-fluoro-2-(2-methoxy-7-methylquinoxalin-5-yl)-7,8-dihydrobenzofuro[5,4-d]thiazol-7-yl)methyl)-2-phenylacetamide] | 120 |
| COC(=O)NC[C@H]1Cc2c(c(F)cc3nc(-c4cc(C)cc5nc(OC)cnc45)sc23)O1 [Example 218, (R)-methyl ((5-fluoro-2-(2-methoxy-7-methylquinoxalin-5-yl)-7,8-dihydrobenzofuro[5,4-d]thiazol-7-yl)methyl)carbamate] | 15 |
| COc1cnc2c(-c3nc4cc(F)c5c(c4s3)C[C@H](CNC(C)=O)O5)cc(C)cc2n1 [Example 219, (R)-N-((5-fluoro-2-(2-methoxy-7-methylquinoxalin-5-yl)-7,8-dihydrobenzofuro[5,4-d]thiazol-7-yl)methyl)acetamide] | 180 |
| COc1cnc2c(-c3nc4cc(F)c5c(c4s3)C[C@H](CNC(=O)Oc3ccccc3)O5)cc(C)cc2n1 [Example 220, (R)-phenyl ((5-fluoro-2-(2-methoxy-7-methylquinoxalin-5-yl)-7,8-dihydrobenzofuro[5,4-d]thiazol-7-yl)methyl)carbamate] | 38 |
| COc1cnc2c(-c3nc4cc(F)c5c(c4s3)C[C@H](CNC(=O)OCc3ccccc3)O5)cc(C)cc2n1 [Example 221, (R)-benzyl ((5-fluoro-2-(2-methoxy-7-methylquinoxalin-5-yl)-7,8-dihydrobenzofuro[5,4-d]thiazol-7-yl)methyl)carbamate] | 5.9 |
| COc1cnc2c(-c3nc4cc(F)c5c(c4s3)C[C@H](CNC(=O)C(F)(F)F)O5)cc(C)cc2n1 [Example 222, (R)-2,2,2-trifluoro-N-((5-fluoro-2-(2-methoxy-7-methylquinoxalin-5-yl)-7,8-dihydrobenzofuro[5,4-d]thiazol-7-yl)methyl)acetamide] | > 500 |
| COc1cnc2c(-c3nc4cc(F)c5c(c4s3)C[C@H](CNC(=O)OC(C)(C)C)O5)cc(C)cc2n1 [Example 223, (R)-tert-butyl ((5-fluoro-2-(2-methoxy-7-methylquinoxalin-5-yl)-7,8-dihydrobenzofuro[5,4-d]thiazol-7-yl)methyl)carbamate] | 5.8 |
| COc1cnc2c(-c3nc4ccc5c(c4s3)C[C@@H](CNC(=O)OCC(C)C)O5)cc(C)cc2n1 [Example 224, (S)-isobutyl ((2-(2-methoxy-7-methylquinoxalin-5-yl)-7,8-dihydrobenzofuro [5,4-d]thiazol-7-yl)methyl)carbamate] | 4 |
| COc1cnc2c(-c3nc4ccc5c(c4s3)C[C@@H](CNC(=O)OCc3ccccc3)O5)cc(C)cc2n1 [Example 225, (S)-benzyl ((2-(2-methoxy-7-methylquinoxalin-5-yl)-7,8-dihydrobenzofuro[5,4-d]thiazol-7-yl)methy 1)carbamate] | 0.6 |
| COC(=O)NC[C@@H]1Cc2c(ccc3nc(-c4cc(C)cc5nc(OC)cnc45)sc23)O1 [Example 226, (S)-methyl ((2-(2-methoxy-7-methylquinoxalin-5-yl)-7,8-dihydrobenzofuro[5,4-d]thiazol-7-yl)methy 1)carbamate] | 1.4 |
| COc1cnc2c(-c3nc4ccc5c(c4s3)C[C@@H](CNC(=O)OC3CCOCC3)O5)cc(C)cc2n1 [Example 227, (S)-tetrahydro-2H-pyran-4-yl ((2-(2-methoxy-7-methylquinoxalin-5-yl)-7,8-dihydrobenzofuro[5,4-d]thiazol-7-yl)methy 1)carbamate] | 1.3 |
| COc1cnc2c(-c3nc4ccc5c(c4s3)C[C@@H](CNS(C)(=O)=O)O5)cc(C)cc2n1 [Example 228, (S)-N-((2-(2-methoxy-7-methylquinoxalin-5-yl)-7,8-dihydrobenzofuro[5,4-d]thiazol-7-yl)methyl)methanesulfonamide] | 190 |
| COc1cnc2c(-c3nc4ccc5c(c4s3)C[C@@H](CNC(=O)OCC3CCOC3)O5)cc(C)cc2n1 (stereo partly drawn) [Example 229, (Tetrahydrofuran-3-yl)methyl (((S)-2-(2-methoxy-7-methylquinoxalin-5-yl)-7,8-dihydrobenzofuro[5,4-d]thiazol-7-yl)methyl)carbamate] | 20 |
